Results published in patent publication US20250313535A1, “ALPHA 4 BETA 7 INTEGRIN MODULATORS AND USES THEREOF” (DICE MOLECULES SV, INC., priority 2022, published 2025).
Read-outs that look alike come from different tables or passages of the source.

Tests used:
α4β7 integrin = α4β7 integrin (Homo sapiens (Human), UniProt P13612+P26010); assay: Integrin Adhesion Assay: Protocol 4 (MAdCAM-coated plate, RPMI-8866 cells with stable LOF mutation of the ITGB1 gene); format: cell-based
Description: (§1) Integrin Adhesion Assay Using Genetically Modified Cells Generating Stable Cell Lines with ITGB1 or ITGB7 Knockout (Protocol 4 and Protocol 5)
(§2) To obtain subclones of the RPMI-8866 cell line (Sigma-Aldrich, St. Louis, MO) that were individually deficient in either integrin β1 or integrin β 7, CRISPR/Cas9 technology was employed (PMID: 30108345). Specifically, a Neon™ Transfection System System 10 μL Kit and the Neon™ Transfection device (both from ThermoFisher Scientific) were used.
(§3) The protocol was performed following the manufacturer instructions, described in https://www.thermofisher.com/document-connect/document-connect.html?url=https % 3A%2F%2F assets.thermofisher.com%2FTFS-Assets%2FLSG%2Fmanuals%2FMAN0017066_TrueCut Cas9_Protein_v2_UG.pdf, which is incorporated by reference herein in its entirety.
(§4) RPMI-8866 cells were transferred to a flask the day before transfection, at a confluence of 5×10^5 cells/mL. The cells were washed with PBS and resuspended in buffer R (Neon™ Transfection System, Invitrogen) to 2×10^5 cells/10 uL for each reaction. The TrueCut™ HiFi Cas9 Protein (1250 ng per reaction) was mixed with TrueGuide™ sgRNA (7.5 pmoles each/pool of 3 sequences, table 1) (ThermoFisher Scientific). This mix was combined with the RPMI-8866 cells and electroporated on the Neon system at 1700V/20 ms/1 pulse. Transfected cells were allowed to recover in 500 μL pre-warmed cRMPI media (RPMI-1640 media with 10% FBS, 100 U/ml Penicillin-Streptomycin) at 37° C., 5% CO2 for 24 hours. At that time, an extra 500 μL of pre-warmed cRMPI media was added, and cells were incubated for another 24 hours.
(§5) For flow cytometry analysis, 100 μL of the transfected cells were collected and stained with anti-itga4 (Clone: 9F10, PE, BD Pharmingen™), anti-itgb 1 (Clone: (TS2/16), Super Bright 436, eBioscience), anti-itgb7 (Clone: FIB504, Brilliant Violet 650, BD Pharmingen™) and viability dye (LIVE/DEAD™ Fixable Green Dead Cell Stain, Invitrogen™). An Attune NxT Flow Cytometer was used to analyze the CRISPR-transfected cells. The flow cytometry results were analyzed using FlowJo™ v10.8.1 Software (BD Life Sciences). Fluorescence minus one (FMO) controls were used to select appropriate gates for data analysis.
(§6) To generate an individual clones of cells deficient in either ITGB7 or ITGB1 by limiting dilution assay, the transfected cells were resuspended at 5 cells/mL and seeded in 384 well plates. Outgrowth of clones was monitored using a microscope, and 24 clones were transferred for expansion. Expression of either integrin was verified by flow cytometry in each of the clones. One clone of each integrin b7 or the integrin b1 knockout was chosen, expanded and aliquots were frozen in vapor phase liquid nitrogen.
Integrin Adhesion Assay: Protocol 4
(§7) MAdCAM (R&D Systems, 0.1 ug) was diluted in 50 μL PBS, added to each well of an opaque ELISA plate (Thermo), and incubated overnight at 4° C. Coated plates were washed once with PBS and then blocked with 200 μL of assay buffer (10 mM HEPES, 150 mM NaCl, 1 mM MnCl2, 0.1 mM CaCl2), 1% BSA) for 1 hour at 37° C. and 5% CO2. After incubation, buffer was aspirated from the plates and 50 μL of fresh assay buffer was added. Compounds were added using a compounds dispenser (Tecan), and DMSO concentration was normalized to 1% across each plate. 50 μL of RPMI-8866 cells with a stable loss of function (LOF) mutation of the ITGB1 gene (2×10^6 per mL) were added to each well and the plates were incubated for 1 hour at 37° C. at a CO2 concentration of 5%. After incubation, plates were allowed to cool to RT for 10 minutes before being washed four times in assay buffer by an automated plate washer (BioTek). After washing, 100 μL of a 1:1 mixture of assay buffer and CellTiter GLO 2.0 reagent (Promega) were added to each well. Plates were mixed for 2 minutes at 1000 rpm and then allowed to incubate an additional 10 minutes before reading out luminescence on a Tecan Spark plate reader. […]

α4β1 integrin = α4β1 integrin (Homo sapiens (Human), UniProt P05556+P13612); assay: Integrin Adhesion Assay: Protocol 5 (VCAM-coated plate, RPMI-8866 cells with stable LOF mutation of the ITGB7 gene); format: cell-based
Chain of α4β1 integrin (P13612 34-1032): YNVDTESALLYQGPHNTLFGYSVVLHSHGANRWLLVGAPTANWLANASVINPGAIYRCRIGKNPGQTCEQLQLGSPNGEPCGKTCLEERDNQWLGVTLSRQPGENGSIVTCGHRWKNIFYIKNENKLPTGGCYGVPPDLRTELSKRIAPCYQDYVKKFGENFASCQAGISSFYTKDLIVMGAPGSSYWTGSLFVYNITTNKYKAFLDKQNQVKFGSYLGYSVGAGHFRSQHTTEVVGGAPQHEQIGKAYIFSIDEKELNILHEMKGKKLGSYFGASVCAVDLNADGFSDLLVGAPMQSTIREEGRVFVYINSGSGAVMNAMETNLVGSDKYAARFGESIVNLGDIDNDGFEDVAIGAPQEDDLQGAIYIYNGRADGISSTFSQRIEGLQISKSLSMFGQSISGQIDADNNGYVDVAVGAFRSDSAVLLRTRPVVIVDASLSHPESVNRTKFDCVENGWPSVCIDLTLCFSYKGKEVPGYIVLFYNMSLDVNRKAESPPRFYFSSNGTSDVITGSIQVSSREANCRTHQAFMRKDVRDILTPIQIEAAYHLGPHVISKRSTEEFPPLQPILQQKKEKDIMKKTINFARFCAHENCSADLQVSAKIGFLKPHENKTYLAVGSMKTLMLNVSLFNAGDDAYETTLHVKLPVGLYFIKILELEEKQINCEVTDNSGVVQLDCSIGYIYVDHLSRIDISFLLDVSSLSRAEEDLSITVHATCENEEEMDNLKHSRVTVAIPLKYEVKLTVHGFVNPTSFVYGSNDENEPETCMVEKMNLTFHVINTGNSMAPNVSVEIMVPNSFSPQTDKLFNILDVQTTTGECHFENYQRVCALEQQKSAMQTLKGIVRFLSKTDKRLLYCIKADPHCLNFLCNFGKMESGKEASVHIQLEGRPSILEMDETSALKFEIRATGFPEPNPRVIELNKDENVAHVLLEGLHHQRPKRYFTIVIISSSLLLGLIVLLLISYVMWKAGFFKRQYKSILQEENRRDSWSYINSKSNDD
Chain of α4β1 integrin (P05556 21-798): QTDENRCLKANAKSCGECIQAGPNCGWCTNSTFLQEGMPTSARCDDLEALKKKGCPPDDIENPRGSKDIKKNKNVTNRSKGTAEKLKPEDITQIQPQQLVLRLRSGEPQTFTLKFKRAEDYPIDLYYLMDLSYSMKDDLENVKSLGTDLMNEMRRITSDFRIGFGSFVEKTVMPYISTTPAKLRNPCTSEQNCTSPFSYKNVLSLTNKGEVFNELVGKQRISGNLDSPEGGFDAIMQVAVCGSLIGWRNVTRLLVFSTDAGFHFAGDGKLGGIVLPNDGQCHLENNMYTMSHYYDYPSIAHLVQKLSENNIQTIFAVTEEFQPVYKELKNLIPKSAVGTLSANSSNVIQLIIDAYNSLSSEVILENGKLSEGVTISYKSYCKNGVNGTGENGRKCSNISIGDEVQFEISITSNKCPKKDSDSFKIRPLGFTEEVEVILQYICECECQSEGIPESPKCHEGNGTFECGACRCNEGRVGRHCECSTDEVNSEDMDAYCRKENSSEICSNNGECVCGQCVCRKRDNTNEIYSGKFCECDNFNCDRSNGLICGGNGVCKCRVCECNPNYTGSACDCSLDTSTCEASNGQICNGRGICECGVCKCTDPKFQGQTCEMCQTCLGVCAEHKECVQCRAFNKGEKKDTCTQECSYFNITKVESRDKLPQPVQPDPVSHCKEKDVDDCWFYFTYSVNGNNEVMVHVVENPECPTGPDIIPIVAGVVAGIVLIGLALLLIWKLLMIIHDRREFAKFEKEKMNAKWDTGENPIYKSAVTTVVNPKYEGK
Description: as §1, §2, §3, §4, §5, §6
Integrin Adhesion Assay: Protocol 5
as §7, with “VCAM” for “MAdCAM”, “by” for “using a”, “(Tecan)” for “(Tecan),”, “LOF” for “loss of function (LOF)”, “ITGB7” for “ITGB1”, “and 5% CO2.” for “at a CO2 concentration of 5%.”

[1] = RPMI-8866 cells with stable LOF mutation of the ITGB1 gene, read-out: Mean IC50 α4β7 KO^a
[2] = RPMI-8866 cells with stable LOF mutation of the ITGB7 gene, read-out: Mean IC50 α4β1 KO^b
[3] = Protocol 4, RPMI-8866 cells with LOF mutation of ITGB1, MAdCAM, read-out: Mean IC50 α4β7 KO
[4] = Protocol 5, RPMI-8866 cells with LOF mutation of ITGB7, VCAM, read-out: Mean IC50 α4β1 KO

Chain of α4β7 integrin (P13612 34-1032): as the sequence (P13612 34-1032) above
Chain of α4β7 integrin (P26010 20-798): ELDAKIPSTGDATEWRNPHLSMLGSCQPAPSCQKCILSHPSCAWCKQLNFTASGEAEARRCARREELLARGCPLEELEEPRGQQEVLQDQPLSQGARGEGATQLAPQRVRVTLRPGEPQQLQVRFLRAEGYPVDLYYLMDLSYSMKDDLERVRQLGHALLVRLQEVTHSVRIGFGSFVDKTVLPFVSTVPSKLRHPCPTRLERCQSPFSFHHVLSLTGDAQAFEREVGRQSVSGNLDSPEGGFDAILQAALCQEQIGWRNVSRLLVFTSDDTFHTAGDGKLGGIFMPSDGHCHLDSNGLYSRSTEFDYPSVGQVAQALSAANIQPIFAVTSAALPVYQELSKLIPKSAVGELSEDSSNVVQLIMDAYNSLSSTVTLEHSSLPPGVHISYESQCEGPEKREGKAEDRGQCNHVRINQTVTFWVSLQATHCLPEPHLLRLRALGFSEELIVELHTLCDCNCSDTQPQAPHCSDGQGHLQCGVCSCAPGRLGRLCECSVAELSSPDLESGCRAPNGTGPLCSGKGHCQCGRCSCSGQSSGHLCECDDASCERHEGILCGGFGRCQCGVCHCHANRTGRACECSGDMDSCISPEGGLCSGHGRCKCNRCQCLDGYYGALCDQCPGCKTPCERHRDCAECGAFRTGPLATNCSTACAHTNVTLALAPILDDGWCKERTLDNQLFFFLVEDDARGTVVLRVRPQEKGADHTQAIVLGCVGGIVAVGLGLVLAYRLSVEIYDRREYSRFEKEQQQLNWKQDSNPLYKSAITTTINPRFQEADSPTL

Compound	IC50 (α4β7 integrin; [1]) [nM]	IC50 (α4β7 integrin; [3]) [nM]	other results
O=C(O)[C@H](Cc1cccc2c(-c3nccc4c(CN5CCC(F)(F)CC5)cccc34)cccc12)NC(=O)C1(C(F)(F)F)CCN(CC(F)(F)F)CC1 [Compound 554]	10 to 100	–	IC50 (α4β1 integrin; [2]): > 1000 nM
COc1cc2c(c(C(F)(F)F)c1-c1cccc3c(C[C@H](NC(=O)C4(C(F)(F)F)CCN(CC(F)(F)F)CC4)C(=O)O)cccc13)CCN(CC(F)(F)F)C2 [Compound 673]	10 to 100	–	IC50 (α4β1 integrin; [2]): > 1000 nM
CC1(C)CCN(Cc2ccc(-c3cccc4c(C[C@H](NC(=O)C5(C(F)(F)F)CCN(CC(F)(F)F)CC5)C(=O)O)cccc34)c3cnccc23)CC1 [Compound 986]	–	< 10	IC50 (α4β1 integrin; [4]): 100 to 1000 nM
O=C(O)[C@H](Cc1cccc2c(-c3ncc(CN4CCC(F)CC4)c4ccccc34)cccc12)NC(=O)C1(C(F)(F)F)CCN(CC(F)F)CC1 [Compound 905]	–	< 10	IC50 (α4β1 integrin; [4]): > 1000 nM
COc1ccc(CN2CCC(F)C2)c(OC)c1-c1cccc2c(C[C@H](NC(=O)c3c(C)cccc3F)C(=O)O)cccc12 (some centres unmarked) [Compound 629]	< 10	–	IC50 (α4β1 integrin; [2]): > 1000 nM
COc1ccc(CN2CCC3(CCCCC3)CC2)c(OC)c1-c1cccc2c(C[C@H](NC(=O)c3c(C)cccc3F)C(=O)O)cccc12 [Compound 654]	< 10	–	IC50 (α4β1 integrin; [2]): > 1000 nM
COc1cc(CN2CCCCC2)ccc1-c1cccc2c(C[C@H](NC(=O)C3(C(F)(F)F)CCN(CC(F)(F)F)CC3)C(=O)O)cccc12 [Compound 831]	–	< 10	IC50 (α4β1 integrin; [4]): > 1000 nM
Cn1c(=O)c(-c2cccc3c(C[C@H](NC(=O)C4(C)CC5(CN(CC(F)(F)F)C5)C4)C(=O)O)cccc23)c(C(F)(F)F)c2ccccc21 [Compound 521]	100 to 1000	–	IC50 (α4β1 integrin; [2]): > 1000 nM
COc1ccc(CN2CCC(F)(F)CC2)c(OC)c1-c1cccc2c(C[C@H](NC(=O)C3(C(F)(F)F)CCN(C4COCC4(F)F)CC3)C(=O)O)cccc12 (single isomer, unassigned) [Compound 639]	< 10	–	IC50 (α4β1 integrin; [2]): 100 to 1000 nM
C[C@@H]1CN(Cc2cnc(-c3cccc4c(C[C@H](NC(=O)C5(C(F)(F)F)CCN(CC(F)(F)F)CC5)C(=O)O)cccc34)c3ccccc23)C[C@H](C)O1 [Compound 863]	–	10 to 100	IC50 (α4β1 integrin; [4]): > 1000 nM
C[C@@H]1CN(CCc2cnc(-c3cccc4c(C[C@H](NC(=O)C5(C(F)(F)F)CCN(CC(F)(F)F)CC5)C(=O)O)cccc34)c3ccccc23)C[C@H](C)O1 [Compound 979]	–	< 10	–
COc1ccc(CN2CCCC(F)C2)c(OC)c1-c1cccc2c(C[C@H](NC(=O)c3c(C)cc(C45CCOCC4C5)cc3F)C(=O)O)cccc12 (some centres unmarked) [Compound 663]	< 10	–	–
COc1cc2c(c(C(F)(F)F)c1-c1cccc3c(C[C@H](NC(=O)C4(C(F)(F)F)CCN(CC(F)(F)F)CC4)C(=O)O)cccc13)CN(C)CC2 [Compound 736]	–	< 10	–
COc1cccc(CN2CCCCC2)c1-c1cccc2c(C[C@H](NC(=O)c3c(F)cccc3C3CC3)C(=O)O)cccc12 [Compound 541]	< 10	–	–
Cn1c(=O)c(-c2cccc3c(C[C@H](NC(=O)c4c(F)ccc(C5CC5)c4F)C(=O)O)cccc23)c(C(F)(F)F)c2ccccc21 [Compound 488]	100 to 1000	–	–
CO[C@H]1C[C@H](c2cc(F)c(C(=O)N[C@@H](Cc3cccc4c(-c5c(C(F)(F)F)c6ccccc6n(C)c5=O)cccc34)C(=O)O)c(F)c2)N(C)C1 [Compound 467]	100 to 1000	–	–

Compound	IC50 (α4β7 integrin; [1]) [nM]	IC50 (α4β7 integrin; [3]) [nM]	other results
CCCS(=O)(=O)N1CCC(C(=O)N[C@@H](Cc2cccc3c(-c4c(OC)ccc(CN5CCC(F)(F)CC5)c4OC)cccc23)C(=O)O)(C(F)(F)F)CC1 [Compound 617]	100 to 1000	–	–
COc1ccc(CN2CCCCC2)cc1-c1cccc2c(C[C@H](NC(=O)C3(C(F)(F)F)CCN(CC(F)F)CC3)C(=O)O)cccc12 [Compound 937]	–	< 10	–
CO[C@H]1C[C@@H](c2cc(F)c(C(=O)N[C@@H](Cc3cccc4c(-c5c(C(F)(F)F)c6ccccc6n(C)c5=O)cccc34)C(=O)O)c(F)c2)N(C)C1 [Compound 466]	100 to 1000	–	–
O=C(O)[C@H](Cc1cccc2c(-c3ncc(CN4CC(F)C4)c4ccccc34)cccc12)NC(=O)C1(C(F)(F)F)CCN(CC(F)F)CC1 [Compound 877]	–	< 10	–
Cc1cc(C2CCCN(C)C2)cnc1-c1cccc2c(C[C@H](NC(=O)C3(C(F)(F)F)CCN(CC(F)(F)F)CC3)C(=O)O)cccc12 (some centres unmarked) [Compound 760]	–	< 10	–
O=C(O)[C@H](Cc1cccc2c(-c3nccc4ccc(CCCN5CCC6(CC5)CC6)cc34)cccc12)NC(=O)C1(C(F)(F)F)CCN(CC(F)F)CC1 [Compound 774]	–	< 10	–
COc1ccc(CN2CC3CCC(C2)O3)c(OC)c1-c1cccc2c(C[C@H](NC(=O)c3c(C)cccc3F)C(=O)O)cccc12 [Compound 568]	10 to 100	–	–
O=C(O)[C@H](Cc1cccc2c(-c3nccc4ccc(CCCN5CCC6(CC5)CC6)cc34)cccc12)NC(=O)C1(C(F)(F)F)CCN(CC(F)(F)F)CC1 [Compound 743]	–	< 10	–
CC(C)CC1CC(C)(C(=O)N[C@@H](Cc2cccc3c(-c4c(C(F)(F)F)c5ccccc5n(C)c4=O)cccc23)C(=O)O)CCN1CC(F)(F)F (some centres unmarked) [Compound 529]	> 1000	–	–
COc1ccc(CN2CCC(C(F)(F)F)CC2)cc1-c1cccc2c(C[C@H](NC(=O)C3(C(F)(F)F)CCN(CC(F)F)CC3)C(=O)O)cccc12 [Compound 938]	–	< 10	–
Cc1c(CN2CCCCC2)ccnc1-c1cccc2c(C[C@H](NC(=O)C3(C(F)(F)F)CCN(CC(F)(F)F)CC3)C(=O)O)cccc12 [Compound 747]	–	10 to 100	–
Cn1c(=O)c(-c2cccc3c(C[C@H](NC(=O)C4(C)C[C@H]5CN(CC(F)(F)F)C[C@H]5C4)C(=O)O)cccc23)c(C(F)(F)F)c2ccccc21 (some centres unmarked) [Compound 1047]	–	100 to 1000	–
COc1c(CN(C)C)ccc(C)c1-c1cccc2c(C[C@H](NC(=O)c3c(C)cccc3F)C(=O)O)cccc12 [Compound 1010]	–	< 10	–
Cc1cccc(F)c1C(=O)N[C@@H](Cc1cccc2c(-c3cc(CN4CCCCC4)ccc3C(F)(F)F)cccc12)C(=O)O [Compound 689]	–	10 to 100	–
COC1CN(Cc2cnc(-c3cccc4c(C[C@H](NC(=O)C5(C(F)(F)F)CCN(CC(F)F)CC5)C(=O)O)cccc34)c3ccccc23)C1 [Compound 913]	–	< 10	–
